In patent US20080200454A1, “CARBON-LINKED TETRAHYDRO-PYRAZOLO-PYRIDINE MODULATORS OF CATHEPSIN S” (priority 2007, published 2008) one finds IC50 data, which are given here for 23 compounds.

The first assay deals with Recombinant human cathepsin S (CatS) (Homo sapiens, UniProt P25774). Kind of assay: Recombinant human cathepsin S (CatS) inhibition assay, fluorogenic substrate Z-Valine-Valine-Arginine-AMC.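 Further: Baculovirus-expressed CatS in pH 5.0 sodium acetate buffer with DTT and NaCl, fluorescence read each minute over 20 min, inhibition derived from rate slope.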
Sequence of Recombinant human cathepsin S (CatS) (P25774 115-331): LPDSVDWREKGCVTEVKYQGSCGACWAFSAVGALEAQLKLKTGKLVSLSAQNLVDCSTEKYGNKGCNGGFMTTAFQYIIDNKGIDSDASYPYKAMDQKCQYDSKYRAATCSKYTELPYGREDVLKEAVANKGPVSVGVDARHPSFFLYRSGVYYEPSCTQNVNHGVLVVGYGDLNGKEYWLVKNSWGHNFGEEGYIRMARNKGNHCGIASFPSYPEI
Conditions: not given
For orientation: IC50 means the concentration that gives 50% inhibition. With `CC(C)(C)OC(=O)NCc1cccc(C#Cc2cc(-c3nn(CCCN4CCOCC4)c4c3CN(S(C)(=O)=O)CC4)ccc2Cl)c1` [Example 376, 1,1-Dimethylethyl {[3-({2-chloro-5-[5-(methylsulfonyl)-1-(3-morpholin-4-ylpropyl)-4,5,6,7-tetrahydro-1H-pyrazolo[4,3-c]pyridin-3-yl]phenyl}ethynyl)phenyl]methyl}carbamate], the 50% inhibitory concentration (IC50) came to 1010 nM. Consider `CS(=O)(=O)N1CCc2c(c(-c3ccc(Cl)c(C#Cc4cccc(CNCc5ccccc5)c4)c3)nn2CCCN2CCOCC2)C1` [Example 379, 1-[3-({2-Chloro-5-[5-(methylsulfonyl)-1-(3-morpholin-4-ylpropyl)-4,5,6,7-tetrahydro-1H-pyrazolo[4,3-c]pyridin-3-yl]phenyl}ethynyl)phenyl]-N-(phenylmethyl)methanamine], for which the IC50 is 290 nM. Take `CC(C)(C)OC(=O)NCc1ccccc1C#Cc1cc(-c2nn(CCCN3CCOCC3)c3c2CN(S(C)(=O)=O)CC3)ccc1Cl` [Example 384, 1,1-Dimethylethyl {[2-({2-chloro-5-[5-(methylsulfonyl)-1-(3-morpholin-4-ylpropyl)-4,5,6,7-tetrahydro-1H-pyrazolo[4,3-c]pyridin-3-yl]phenyl}ethynyl)phenyl]methyl}carbamate]: the IC50 was found to be 2790 nM. Still for that read-out and setting: in the case of `CS(=O)(=O)N1CCc2c(c(-c3ccc(Cl)c(C#Cc4ccc(CNCc5ccc(Cl)cc5)cc4)c3)nn2CCCN2CCOC(CO)C2)C1` (centres unmarked) [Example 389] it was 230 nM; in that of `CS(=O)(=O)N1CCc2c(c(-c3ccc(Cl)c(C#Cc4cnc5c(c4)CNCC5)c3)nn2CCCN2CCOCC2)C1` [Example 394, 3-({2-Chloro-5-[5-(methylsulfonyl)-1-(3-morpholin-4-ylpropyl)-4,5,6,7-tetrahydro-1H-pyrazolo[4,3-c]pyridin-3-yl]phenyl}ethynyl)-5,6,7,8-tetrahydro-1,6-naphthyridine], 3810 nM.

Turning to `CS(=O)(=O)N1CCc2c(c(-c3ccc(Cl)c(CCc4ccc(CNCc5ccc(Cl)cc5)cc4)c3)nn2CCCN2CCN(c3ccccc3)CC2)C1` [Example 395, 1-{4-[2-(2-Chloro-5-{5-(methylsulfonyl)-1-[3-(4-phenylpiperazin-1-yl)propyl]-4,5,6,7-tetrahydro-1H-pyrazolo[4,3-c]pyridin-3-yl}phenyl)ethyl]phenyl}-N-[(4-chlorophenyl)methyl]methanamine], the IC50 turned out to be 20 nM. Regarding `CS(=O)(=O)N1CCc2c(c(-c3ccc(Cl)c(C#Cc4ccc5c(c4)CN(C4CC4)CC5)c3)nn2CCCN2CCOCC2)C1` [Example 396, 7-({2-Chloro-5-[5-(methylsulfonyl)-1-(3-morpholin-4-ylpropyl)-4,5,6,7-tetrahydro-1H-pyrazolo[4,3-c]pyridin-3-yl]phenyl}ethynyl)-2-cyclopropyl-1,2,3,4-tetrahydroisoquinoline], the IC50 is 230 nM.

The same assay, now with this note: CatS IC50.
Regarding `CS(=O)(=O)N1CCc2c(c(-c3ccc(Cl)c(C#Cc4cccc(CN)c4)c3)nn2CCCN2CCOCC2)C1` [Example 377, 1-[3-({2-Chloro-5-[5-(methylsulfonyl)-1-(3-morpholin-4-ylpropyl)-4,5,6,7-tetrahydro-1H-pyrazolo[4,3-c]pyridin-3-yl]phenyl}ethynyl)phenyl]methanamine], the concentration for half-maximal inhibition (IC50) came out at 470 nM. `CC(C)(C)C1CCN(CCCn2nc(-c3ccc(Cl)c(C#Cc4ccc5c(c4)CNCC5)c3)c3c2CCN(S(C)(=O)=O)C3)CC1` [Example 378, 7-({2-Chloro-5-[1-{3-[4-(1,1-dimethylethyl)piperidin-1-yl]propyl}-5-(methylsulfonyl)-4,5,6,7-tetrahydro-1H-pyrazolo[4,3-c]pyridin-3-yl]phenyl}ethynyl)-1,2,3,4-tetrahydroisoquinoline]: the IC50 is 80 nM. As to `CS(=O)(=O)N1CCc2c(c(-c3ccc(Cl)c(C#Cc4ccc(CNCc5ccc(Cl)cc5)cc4)c3)nn2CCCN2CCN(C(=O)c3ccccc3)CC2)C1` [Example 380, 1-[4-({2-Chloro-5-[5-(methylsulfonyl)-1-{3-[4-(phenylcarbonyl)piperazin-1-yl]propyl}-4,5,6,7-tetrahydro-1H-pyrazolo[4,3-c]pyridin-3-yl]phenyl}ethynyl)phenyl]-N-[(4-chlorophenyl)methyl]methanamine], the IC50 came to 60 nM. As to `CS(=O)(=O)N1CCc2c(c(-c3ccc(Cl)c(C#Cc4ccc5c(c4)CNCC5)c3)nn2CCCN2CCCCC2)C1` [Example 381, 7-({2-Chloro-5-[5-(methylsulfonyl)-1-(3-piperidin-1-ylpropyl)-4,5,6,7-tetrahydro-1H-pyrazolo[4,3-c]pyridin-3-yl]phenyl}ethynyl)-1,2,3,4-tetrahydroisoquinoline], the IC50 turned out to be 100 nM. As to `CS(=O)(=O)N1CCc2c(c(-c3ccc(Cl)c(C#Cc4ccc(CNCc5ccc(Cl)cc5)cc4)c3)nn2CCCN2CC[C@H](O)C2)C1` [Example 382, (3S)-1-{3-[3-(4-Chloro-3-{[4-({[(4-chlorophenyl)methyl]amino}methyl)phenyl]ethynyl}phenyl)-5-(methylsulfonyl)-4,5,6,7-tetrahydro-1H-pyrazolo[4,3-c]pyridin-1-yl]propyl}pyrrolidin-3-ol], the IC50 was determined as 110 nM.

As for `CS(=O)(=O)N1CCc2c(c(-c3ccc(Cl)c(C#Cc4ccc(CNCc5ccc(Cl)cc5)cc4)c3)nn2CCCN2CC[C@@H](O)C2)C1` [Example 383, (3R)-1-{3-[3-(4-Chloro-3-{[4-({[(4-chlorophenyl)methyl]amino}methyl)phenyl]ethynyl}phenyl)-5-(methylsulfonyl)-4,5,6,7-tetrahydro-1H-pyrazolo[4,3-c]pyridin-1-yl]propyl}pyrrolidin-3-ol], the IC50 stood at 120 nM. For `CS(=O)(=O)N1CCc2c(c(-c3ccc(Cl)c(C#Cc4ccccc4CN)c3)nn2CCCN2CCOCC2)C1` [Example 385, 1-[2-({2-Chloro-5-[5-(methylsulfonyl)-1-(3-morpholin-4-ylpropyl)-4,5,6,7-tetrahydro-1H-pyrazolo[4,3-c]pyridin-3-yl]phenyl}ethynyl)phenyl]methanamine], the IC50 was 2720 nM. Regarding `CS(=O)(=O)N1CCc2c(c(-c3ccc(Cl)c(C#Cc4ccccc4CNCc4ccccc4)c3)nn2CCCN2CCOCC2)C1` [Example 386, 1-[2-({2-Chloro-5-[5-(methylsulfonyl)-1-(3-morpholin-4-ylpropyl)-4,5,6,7-tetrahydro-1H-pyrazolo[4,3-c]pyridin-3-yl]phenyl}ethynyl)phenyl]-N-(phenylmethyl)methanamine], the half-inhibitory concentration (IC50) amounted to 770 nM. For the compound `CS(=O)(=O)N1CCc2c(c(-c3ccc(Cl)c(C#Cc4ccc(CNCc5ccc(Cl)cc5)cc4)c3)nn2CCCN2CCN(C3CC3)CC2)C1` [Example 388, 1-{4-[(2-Chloro-5-{1-[3-(4-cyclopropylpiperazin-1-yl)propyl]-5-(methylsulfonyl)-4,5,6,7-tetrahydro-1H-pyrazolo[4,3-c]pyridin-3-yl}phenyl)ethynyl]phenyl}-N-[(4-chlorophenyl)methyl]methanamine], the IC50 was 60 nM.

Turning to `CC(C)(C)OC(=O)N1CCCN(CCCn2nc(-c3ccc(Cl)c(C#Cc4ccc(CNCc5ccc(Cl)cc5)cc4)c3)c3c2CCN(S(C)(=O)=O)C3)CC1` [Example 390, 1,1-Dimethylethyl 4-{3-[3-(4-chloro-3-{[4-({[(4-chlorophenyl)methyl]amino}methyl)phenyl]ethynyl}phenyl)-5-(methylsulfonyl)-4,5,6,7-tetrahydro-1H-pyrazolo[4,3-c]pyridin-1-yl]propyl}-1,4-diazepane-1-carboxylate], the IC50 was 150 nM. The same measure, in the same setting: in the case of `CS(=O)(=O)N1CCc2c(c(-c3ccc(Cl)c(C#Cc4ccc(CNCc5ccc(Cl)cc5)cc4)c3)nn2CCCN2CCCNCC2)C1` [Example 391, 1-{4-[(2-Chloro-5-{1-[3-(1,4-diazepan-1-yl)propyl]-5-(methylsulfonyl)-4,5,6,7-tetrahydro-1H-pyrazolo[4,3-c]pyridin-3-yl}phenyl)ethynyl]phenyl}-N-[(4-chlorophenyl)methyl]methanamine] it was 260 nM; in that of `CC(C)(C)OC(=O)N1Cc2ccc(C#Cc3cc(-c4nn(CCCN5CCOCC5)c5c4CN(S(C)(=O)=O)CC5)ccc3Cl)cc2C1` [Example 392, 1,1-Dimethylethyl 5-({2-chloro-5-[5-(methylsulfonyl)-1-(3-morpholin-4-ylpropyl)-4,5,6,7-tetrahydro-1H-pyrazolo[4,3-c]pyridin-3-yl]phenyl}ethynyl)-1,3-dihydro-2H-isoindole-2-carboxylate], 180 nM; in that of `CS(=O)(=O)N1CCc2c(c(-c3ccc(Cl)c(C#Cc4ccc5c(c4)CNC5)c3)nn2CCCN2CCOCC2)C1` [Example 393, 3-[4-Chloro-3-(2,3-dihydro-1H-isoindol-5-ylethynyl)phenyl]-5-(methylsulfonyl)-1-(3-morpholin-4-ylpropyl)-4,5,6,7-tetrahydro-1H-pyrazolo[4,3-c]pyridine], 220 nM. The same measure, in the same setting: in the case of `CS(=O)(=O)N1CCc2c(c(-c3ccc(Cl)c(C#Cc4ccc(CNCc5ccc(Cl)cc5)cc4)c3)nn2CCCN2CCNC(=O)C2)C1` [Example 397, 4-{3-[3-(4-Chloro-3-{[4-({[(4-chlorophenyl)methyl]amino}methyl)phenyl]ethynyl}phenyl)-5-(methylsulfonyl)-4,5,6,7-tetrahydro-1H-pyrazolo[4,3-c]pyridin-1-yl]propyl}piperazin-2-one] it was 510 nM. Regarding `CS(=O)(=O)N1CCc2c(c(-c3ccc(Cl)c(C#Cc4ccc(CNCc5ccc(Cl)cc5)cc4)c3)nn2CCCN2CCS(=O)(=O)CC2)C1` [Example 398, 1-{4-[(2-Chloro-5-{1-[3-(1,1-dioxidothiomorpholin-4-yl)propyl]-5-(methylsulfonyl)-4,5,6,7-tetrahydro-1H-pyrazolo[4,3-c]pyridin-3-yl}phenyl)ethynyl]phenyl}-N-[(4-chlorophenyl)methyl]methanamine], the IC50 is 380 nM. `CS(=O)(=O)N1CCc2c(c(-c3ccc(Cl)c(C#Cc4ccc(CNCc5ccc(Cl)cc5)cc4)c3)nn2CCCN2CCCOCC2)C1` [Example 399, 1-{4-[(2-Chloro-5-{5-(methylsulfonyl)-1-[3-(1,4-oxazepan-4-yl)propyl]-4,5,6,7-tetrahydro-1H-pyrazolo[4,3-c]pyridin-3-yl}phenyl)ethynyl]phenyl}-N-[(4-chlorophenyl)methyl]methanamine]: the IC50 came out at 110 nM.
